The values below are quoted from earlier work in patent US20050143363A1, “Method for subretinal administration of therapeutics including steroids; method for localizing pharmacodynamic action at the choroid of the retina; and related methods for treatment and/or prevention of retinal diseases” (InnoRx, Inc., priority 2002, published 2005).

For this data set the following is noted: 72 hours after injection into the vitreous; animal studies.

The structures appear in SMILES notation.

For `C[C@]12C=CC(=O)C=C1CC[C@H]1[C@@H]3C[C@@H](O)[C@](O)(C(=O)CO)[C@@]3(C)C[C@H](O)[C@@]12F` [triamcinolone], the “share of the triamcinolone present in the vitreous that was associated with other tissues including the retina, pigment epithelium, and sclera” value was “less than 1%”.
